Measurements reported in patent publication US20040002425A1, “Triketone derivatives and herbicides” (Idemitsu Kosan Co., Ltd., priority 1998, published 2004).

System: Transplanted paddy rice plant
Test: Biological Test 1 (treatment on the 3rd day after transplantation): chemical injury to paddy rice
Assay type: in vivo
Design: scale not given here
Details: Treatment performed 3 days after transplantation
Method: (1) Preparation of Herbicide
Talc (57 parts by weight) and bentonite (40 parts by weight), both serving as carriers, and sodium alkylbenzenesulfate (3 parts by weight) serving as a surfactant were homogeneously ground and mixed to thereby obtain a carrier for water-dispersible powder.
Subsequently, to the water-dispersible powder (90 parts by weight), the triketone derivative (compound No. A-1) produced in Example I-1 (10 parts by weight) was added, and the resultant mixture was homogeneously ground and mixed to thereby obtain a herbicide.
(i) Biological Test 1 (Soaking in Water/Treatment on the 3rd Day After Transplantation)
A Wagner pot (1/2000 are) was filled with paddy soil, and seeds of barnyard grass were planted on the surface layer of the soil, and further, rice seedlings grown to the 2.5-leaf stage were transplanted.
Subsequently, water was poured in the pot to a height of 3 cm above the soil surface, and placed in a greenhouse where the temperature was maintained at 20-25° C., to thereby grow the plant under suitable conditions.
On the 3rd day after transplantation, the herbicide prepared in (1) above was applied to the plant in a predetermined amount. On the 30th day after treatment with the herbicide, weed-killing ratio, herbicidal effect, and extent of chemical injury to paddy rice were examined.
In Biological tests 1 and 2, herbicidal effect and extent of chemical injury were evaluated according to the below-described standards.
3) Chemical Injury to Paddy Rice
Chemical injury to paddy rice was evaluated according to the following criteria.

[1] = dose 100 g/ha, examined on the 30th day after treatment
[2] = dose 200 g/ha, examined on the 30th day after treatment

Structure (SMILES)	Chemical injury, Transplanted paddy rice plant [1]	Chemical injury, Transplanted paddy rice plant [2]	Chemical injury, Transplanted paddy rice plant (dose 100 g/ha)	Chemical injury, Transplanted paddy rice plant (dose 200 g/ha)
O=C1CCCC(O)=C1C(=O)c1ccc2c(c1Cl)CCS2(=O)=O [A-1, 4-chloro-5-(1,3-dioxocyclohexan-2-yl)carbonyl-2,3-dihydrobenzothiophene-1,1-dioxide]	0	0		
Cc1c(C(=O)C2=C(O)CCCC2=O)ccc2c1CCS2(=O)=O [A-2, 4-methyl-5-(1,3-dioxocyclohexan-2-yl)carbonyl-2,3-dihydrobenzothiophene-1,1-dioxide]	0	0		
Cc1cc(C(=O)C2=C(O)CCCC2=O)c(Cl)c2c1S(=O)(=O)CC2 [A-3, 4-chloro-7-methyl-5-(1,3-dioxocyclohexan-2-yl) carbonyl-2,3-dihydrobenzothiophene-1,1-dioxide]	1	3		
Cc1cc(C(=O)C2=C(O)CCCC2=O)c(C)c2c1S(=O)(=O)CC2 [A-4, 4,7-dimethyl-5-(1,3-dioxocyclohexan-2-yl)carbonyl-2,3-dihydrobenzothiophene-1,1-dioxide]	0	1		
COc1c(C(=O)C2=C(O)CCCC2=O)ccc2c1CCS2(=O)=O [A-5, 4-methoxy-5-(1,3-dioxocyclohexan-2-yl)carbonyl-2,3-dihydrobenzothiophene-1,1-dioxide]	0	0		
CSc1c(C(=O)C2=C(O)CCCC2=O)ccc2c1CCS2(=O)=O [A-6, 4-methylthio-5-(1,3-dioxocyclohexan-2-yl)carbonyl-2,3-dihydrobenzothiophene-1,1-dioxide]	1	3		
CC1CCC(O)=C(C(=O)c2ccc3c(c2Cl)CCS3(=O)=O)C1=O (centres unmarked) [A-7, 4-chloro-5-(4-methyl-1,3-dioxocyclohexan-2-yl)carbonyl-2,3-dihydrobenzothiophene-1,1-dioxide]	1	2		
CC1(C)CCC(O)=C(C(=O)c2ccc3c(c2Cl)CCS3(=O)=O)C1=O [A-8, 4-chloro-5-(4,4-dimethyl-1,3-dioxocyclohexan-2-yl)carbonyl-2,3-dihydrobenzothiophene-1,1-dioxide]	1	3		
CC1(C)CC(=O)C(C(=O)c2ccc3c(c2Cl)CCS3(=O)=O)=C(O)C1 [A-9, 4-chloro-5-(5,5-dimethyl-1,3-dioxocyclohexan-2-yl)carbonyl-2,3-dihydrobenzothiophene-1,1-dioxide]	1	3		
Cc1cc(C(=O)C2=C(O)CC(C)(C)CC2=O)c(Cl)c2c1S(=O)(=O)CC2 [A-10, 4-chloro-7-methyl-5-(5,5-dimethyl-1,3-dioxocyclohexan-2-yl)carbonyl-2,3-dihydrobenzothiophene-1,1-dioxide]	1	3		
Cc1cc(C(=O)C2=C(O)CCC(C)(C)C2=O)c(Cl)c2c1S(=O)(=O)CC2 [A-11, 4-chloro-7-methyl-5-(4,4-dimethyl-1,3-dioxocyclohexan-2-yl)carbonyl-2,3-dihydrobenzothiophene-1,1-dioxide]	1	3		
CC1CC(=O)C(C(=O)c2ccc3c(c2Cl)CCS3(=O)=O)=C(O)C1 (centres unmarked) [A-12, 4-chloro-5-(5-methyl-1,3-dioxocyclohexan-2-yl)carbonyl-2,3-dihydrobenzothiophene-1,1-dioxide]	1	2		
CC1CC(C)(C)C(=O)C(C(=O)c2ccc3c(c2Cl)CCS3(=O)=O)=C1O (centres unmarked) [A-13, 4-chloro-5-(4,4,6-trimethyl-1,3-dioxocyclohexan-2-yl)carbonyl-2,3-dihydrobenzothiophene-1,1-dioxide]	1	3		
CC1CC(C)C(O)=C(C(=O)c2ccc3c(c2Cl)CCS3(=O)=O)C1=O (centres unmarked) [A-14, 4-chloro-5-(4,6-dimethyl-1,3-dioxocyclohexan-2-yl)carbonyl-2,3-dihydrobenzothiophene-1,1-dioxide]	1	2		
CC1(C)CC(C)(C)C(=O)C(C(=O)c2ccc3c(c2Cl)CCS3(=O)=O)C1=O [A-15, 4-chloro-5-(4,4,6,6-tetramethyl-1,3-dioxocyclohexan-2-yl)carbonyl-2,3-dihydrobenzothiophene-1,1-dioxide]	1	3		
CC1CC(O)=C(C(=O)c2ccc3c(c2Cl)CCS3(=O)=O)C(=O)C1C (centres unmarked) [A-16, 4-chloro-5-(4,5-dimethyl-1,3-dioxocyclohexan-2-yl)carbonyl-2,3-dihydrobenzothiophene-1,1-dioxide]	1	3		
CC1Cc2c(ccc(C(=O)C3=C(O)CCCC3=O)c2Cl)S1(=O)=O (centres unmarked) [A-17, 4-chloro-2-methyl-5-(1,3-dioxocyclohexan-2-yl)carbonyl-2,3-dihydrobenzothiophene-1,1-dioxide]	0	1		

Structure (SMILES)	Chemical injury, Transplanted paddy rice plant [1]	Chemical injury, Transplanted paddy rice plant [2]	Chemical injury, Transplanted paddy rice plant (dose 100 g/ha)	Chemical injury, Transplanted paddy rice plant (dose 200 g/ha)
COc1c(C(=O)C2=C(O)CCCC2=O)ccc2c1CC(C)S2(=O)=O (centres unmarked) [A-18, 4-methoxy-2-methyl-5-(1,3-dioxocyclohexan-2-yl)carbonyl-2,3-dihydrobenzothiophene-1,1-dioxide]	0	1		
O=C1CCCC([O-])=C1C(=O)c1ccc2c(c1Cl)CCS2(=O)=O.[Na+] [A-19, Sodium Salt of 4-chloro-5-(1,3-dioxocyclohexan-2-yl)carbonyl-2,3-dihydrobenzothiophene-1,1-dioxide]	0	1		
O=C1CCCC(=O)C1C(=O)c1ccc2c(c1Br)CCS2(=O)=O [A-20, 4-bromo-5-(1,3-dioxocyclohexan-2-yl)carbonyl-2,3-dihydrobenzothiophene-1,1-dioxide]	0	0		
N#Cc1c(C(=O)C2C(=O)CCCC2=O)ccc2c1CCS2(=O)=O [A-21, 4-cyano-5-(1,3-dioxocyclohexan-2-yl)carbonyl-2,3-dihydrobenzothiophene-1,1-dioxide]	0	0		
O=C1CCCC(Cl)=C1C(=O)c1ccc2c(c1Cl)CCS2(=O)=O [B-1]			0	0
CCSC1=C(C(=O)c2ccc3c(c2Cl)CCS3(=O)=O)C(=O)CCC1 [B-2]			0	0
O=C1CCCC(Sc2ccccc2)=C1C(=O)c1ccc2c(c1Cl)CCS2(=O)=O [B-3]			0	0
Cc1cc(C(=O)C2=C(Cl)CCCC2=O)c(Cl)c2c1S(=O)(=O)CC2 [B-4]			1	2
Cc1cc(C(=O)C2=C(Sc3ccccc3)CCCC2=O)c(Cl)c2c1S(=O)(=O)CC2 [B-5]			0	0
O=C1CCCC(Br)=C1C(=O)c1ccc2c(c1Cl)CCS2(=O)=O [B-6]			0	0
CSC1=C(C(=O)c2ccc3c(c2Cl)CCS3(=O)=O)C(=O)CCC1 [B-7]			0	0
CCCSC1=C(C(=O)c2ccc3c(c2Cl)CCS3(=O)=O)C(=O)CCC1 [B-8, 4-chloro-5-[3-(3-propyl)thio-1-oxocyclohexan-2-yl]carbonyl-2,3-dihydrobenzothiophene-1,1-dioxide]			0	0
CC(C)SC1=C(C(=O)c2ccc3c(c2Cl)CCS3(=O)=O)C(=O)CCC1 [B-9]			0	0
CCCCSC1=C(C(=O)c2ccc3c(c2Cl)CCS3(=O)=O)C(=O)CCC1 [B-10]			0	0
O=C1CCCC(SCc2ccccc2)=C1C(=O)c1ccc2c(c1Cl)CCS2(=O)=O [B-11]			0	0
CON(C)C1=C(C(=O)c2ccc3c(c2Cl)CCS3(=O)=O)C(=O)CCC1 [B-12, 4-chloro-5-[3-(N-methoxymethyl)amino-1-oxocyclohexan-2-yl]carbonyl-2,3-dihydrobenzothiophene-1,1-dioxide]			0	1
CN(C)C1=C(C(=O)c2ccc3c(c2Cl)CCS3(=O)=O)C(=O)CCC1 [B-13]			0	0
